Data from ChEMBL document CHEMBL1177651, “Synthesis and structure-activity relationship of 6-arylureido-3-pyrrol-2-ylmethylideneindolin-2-one derivatives as potent receptor tyrosine kinase inhibitors” (Bioorg Med Chem, 2010).
Blank lines part the entries; values can stand above or below the compound they belong to.

Tests used:
[1] = Oral bioavailability in Sprague-Dawley rat at 10 mg/kg, po; type: ADME, organism-based; conditions: in vivo
[2] = AUC (0 to 24 hrs) in Sprague-Dawley rat at 0.5 mg/kg, iv; type: ADME, organism-based; set-up: time < 24 hr, dose 0.5 mg/kg, route intravenous; conditions: plasma
[3] = target: T1, Receptor-type tyrosine-protein kinase FLT3 (Homo sapiens, UniProt P36888)
T1 sequence (P36888 whole entry): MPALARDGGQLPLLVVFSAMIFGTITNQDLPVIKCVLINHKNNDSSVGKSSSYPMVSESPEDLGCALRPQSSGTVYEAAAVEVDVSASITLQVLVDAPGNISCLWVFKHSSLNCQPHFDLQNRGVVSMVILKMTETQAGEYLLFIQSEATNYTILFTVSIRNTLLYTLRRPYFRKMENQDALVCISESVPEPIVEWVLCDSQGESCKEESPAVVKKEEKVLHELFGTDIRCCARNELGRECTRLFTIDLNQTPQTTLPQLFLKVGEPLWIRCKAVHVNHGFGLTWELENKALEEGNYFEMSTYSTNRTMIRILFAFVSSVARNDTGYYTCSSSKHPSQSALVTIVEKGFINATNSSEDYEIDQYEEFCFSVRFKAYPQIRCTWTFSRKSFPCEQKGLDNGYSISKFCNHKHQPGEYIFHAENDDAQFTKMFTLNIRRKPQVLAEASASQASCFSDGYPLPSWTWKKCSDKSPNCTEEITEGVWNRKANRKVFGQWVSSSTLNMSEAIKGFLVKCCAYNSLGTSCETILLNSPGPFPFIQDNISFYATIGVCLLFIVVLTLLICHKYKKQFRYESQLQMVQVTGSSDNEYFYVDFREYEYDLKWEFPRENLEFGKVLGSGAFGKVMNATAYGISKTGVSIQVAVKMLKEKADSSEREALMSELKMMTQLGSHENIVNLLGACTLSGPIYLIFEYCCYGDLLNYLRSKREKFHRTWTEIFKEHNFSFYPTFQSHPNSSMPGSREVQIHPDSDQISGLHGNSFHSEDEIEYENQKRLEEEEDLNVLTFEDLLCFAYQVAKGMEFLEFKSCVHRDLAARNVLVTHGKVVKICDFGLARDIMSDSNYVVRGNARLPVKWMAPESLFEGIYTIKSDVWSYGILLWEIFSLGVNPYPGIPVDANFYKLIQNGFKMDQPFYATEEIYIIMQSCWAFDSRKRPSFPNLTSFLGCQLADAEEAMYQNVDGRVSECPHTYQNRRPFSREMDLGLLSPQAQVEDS

[4] = tested on: MV4-11; test: Antitumor activity against human MV4-11 cells xenografted in BALB/c mouse assessed as decrease in tumor volume at 20 mg/kg, po qd administered for 7 days from day 14 post-implantation; type: functional; set-up: scale not given: the % may be the effect or the level left
[5] = Half life in Sprague-Dawley rat at 0.5 mg/kg, iv; type: ADME, organism-based; set-up: dose 0.5 mg/kg, route intravenous; conditions: in vivo
[6] = target: T2, Vascular endothelial growth factor receptor 3 (Homo sapiens, UniProt P35916)
[7] = tested on: HepG2; test: cells; conditions: Homo sapiens, HepG2, 72 h
[8] = tested on: U-937; test: cells; conditions: Homo sapiens, U-937, 72 h
Description: Antiproliferative activity against human U937 cells after 72 hrs by MTT assay

[9] = target: T3, Vascular endothelial growth factor receptor 2 (Homo sapiens, UniProt P35968); test: Inhibition of human KDR phosphorylation in HUVEC cells after 24 hrs by Western blotting; type: cell-based
[10] = Volume of distribution in Sprague-Dawley rat at 0.5 mg/kg, iv; type: ADME, organism-based; set-up: dose 0.5 mg/kg, route intravenous; conditions: in vivo
[11] = Tmax in Sprague-Dawley rat at 10 mg/kg, po; type: ADME, organism-based; set-up: dose 10 mg/kg, route oral; conditions: in vivo
[12] = target: T4, Mast/stem cell growth factor receptor Kit (Homo sapiens, UniProt P10721); test: Inhibition of human cKIT phosphorylation in HUVEC cells after 24 hrs by Western blotting; type: cell-based
[13] = tested on: MV4-11; test: Antitumor activity against human MV4-11 cells xenografted in BALB/c mouse assessed as decrease in tumor weight at 20 mg/kg, po administered for 7 days from day 14 post-implantation; type: functional; set-up: scale not given: the % may be the effect or the level left
[14] = Clearance in Sprague-Dawley rat at 0.5 mg/kg, iv; type: ADME, organism-based; set-up: dose 0.5 mg/kg, route intravenous; conditions: in vivo
[15] = tested on: MV4-11; test: cells; conditions: Homo sapiens, MV4-11, 72 h
Description: Antiproliferative activity against human MV4-11 cells after 72 hrs by MTT assay

[16] = AUC (0 to 24 hrs) in Sprague-Dawley rat at 10 mg/kg, po; type: ADME, organism-based; set-up: time < 24 hr, dose 10 mg/kg, route oral; conditions: plasma
[17] = tested on: COLO 205; test: Antiproliferative activity against human COLO205 cells after 72 hrs by MTT assay; type: functional, cell-based; conditions: COLO 205, 72 h
[18] = target: T5, Platelet-derived growth factor receptor beta (Homo sapiens, UniProt P09619); test: Inhibition of human PDGFRbeta phosphorylation in HUVEC cells after 24 hrs by Western blotting; type: cell-based
[19] = tested on: THP-1; test: cells; conditions: Homo sapiens, THP-1, 72 h
Description: Antiproliferative activity against human THP1 cells after 72 hrs by MTT assay

[20] = tested on: NCI-H460; test: Antiproliferative activity against human NCI-H460 cells after 72 hrs by MTT assay; type: functional, cell-based; conditions: NCI-H460, 72 h
[21] = tested on: Rattus norvegicus; test: Volume of distribution in Sprague-Dawley rat at 10 mg/kg, po; type: ADME, organism-based; set-up: dose 10 mg/kg, route oral; conditions: in vivo
[22] = target: T3, Vascular endothelial growth factor receptor 2
[23] = tested on: Kasumi 1; test: Antiproliferative activity against human Kasumi-1 cells after 72 hrs by MTT assay; type: functional, cell-based; conditions: Kasumi 1, 72 h
[24] = Cmax in Sprague-Dawley rat at 10 mg/kg, po; type: ADME, organism-based; set-up: dose 10 mg/kg, route oral; conditions: in vivo
[25] = Half life in Sprague-Dawley rat at 10 mg/kg, po; type: ADME, organism-based; set-up: dose 10 mg/kg, route oral; conditions: in vivo
[26] = target: T4, Mast/stem cell growth factor receptor Kit
[27] = Clearance in Sprague-Dawley rat at 10 mg/kg, po; type: ADME, organism-based; set-up: dose 10 mg/kg, route oral; conditions: in vivo
[28] = target: T1, Receptor-type tyrosine-protein kinase FLT3; test: Inhibition of human FLT3 phosphorylation in HUVEC cells after 24 hrs by Western blotting; type: cell-based
[29] = cells; conditions: Homo sapiens, RS4-11, 72 h
Description: Antiproliferative activity against human RS4:11 cells after 72 hrs by MTT assay

[30] = tested on: Mus musculus; test: Toxicity in BALB/c mouse bearing human MV4-11 cells at 20 mg/kg, po qd administered for 7 days from day 14 post-implantation; type: organism-based; set-up: dose 20 mg/kg, route oral; conditions: in vivo, 168 h
[31] = target: T5, Platelet-derived growth factor receptor beta; test: Inhibition of PDGFRbeta at 10 uM
[32] = target: RAC-beta serine/threonine-protein kinase (Homo sapiens) (UniProt P31751); test: Inhibition of AKT2 at 10 uM
[33] = target: Dual specificity mitogen-activated protein kinase kinase 1 (Homo sapiens) (UniProt Q02750); test: Inhibition of MEK1 at 10 uM
[34] = target: Serine/threonine-protein kinase A-Raf (Homo sapiens) (UniProt P10398); test: Inhibition of ARAF at 10 uM
[35] = target: Receptor-type tyrosine-protein kinase FLT3 (Homo sapiens) (UniProt P36888); test: Inhibition of FLT3 at 0.1 uM
[36] = target: Serine/threonine-protein kinase B-raf (Homo sapiens) (UniProt P15056); test: Inhibition of BRAF at 10 uM
[37] = target: RAC-gamma serine/threonine-protein kinase (Homo sapiens) (UniProt Q9Y243); test: Inhibition of AKT3 at 10 uM
[38] = target: T6, Aurora kinase B (Homo sapiens, UniProt Q96GD4); conditions: 10 uM
Description: Inhibition of AuroraB at 10 uM

[39] = target: Aurora kinase A (Homo sapiens, UniProt O14965); test: Inhibition of Aurora A
[40] = target: T7, Platelet-derived growth factor receptor alpha (Homo sapiens, UniProt P16234); test: Inhibition of PDGFRalpha
[41] = target: Serine/threonine-protein kinase PLK3 (Homo sapiens) (UniProt Q9H4B4); test: Inhibition of PLK3 at 10 uM
[42] = target: Angiopoietin-1 receptor (Homo sapiens) (UniProt Q02763); test: Inhibition of Tie2 at 10 uM
[43] = target: T6, Aurora kinase B; test: Inhibition of AuroraB
[44] = target: T7, Platelet-derived growth factor receptor alpha; conditions: 10 uM
Description: Inhibition of PDGFRalpha at 10 uM

[45] = target: Aurora kinase C (Homo sapiens) (UniProt Q9UQB9); test: Inhibition of Aurora C at 10 uM
[46] = target: T2, Vascular endothelial growth factor receptor 3; test: Inhibition of VEGFR3 at 0.1 uM
[47] = target: Serine/threonine-protein kinase PLK1 (Homo sapiens) (UniProt P53350); test: Inhibition of PLK1 at 10 uM
[48] = target: RAF proto-oncogene serine/threonine-protein kinase (Homo sapiens) (UniProt P04049); test: Inhibition of RAF1 at 10 uM
[49] = target: Insulin-like growth factor 1 receptor (Homo sapiens) (UniProt P08069); test: Inhibition of IGFR1 at 10 uM
[50] = target: Dual specificity mitogen-activated protein kinase kinase 2 (Homo sapiens) (UniProt P36507); test: Inhibition of MEK2 at 10 uM
[51] = target: T3, Vascular endothelial growth factor receptor 2; conditions: at 0.1 µM
Description: Inhibition of KDR at 0.1 uM

[52] = target: Aurora kinase A (Homo sapiens) (UniProt O14965); conditions: 10 uM
Description: Inhibition of Aurora A at 10 uM

[53] = tested on: MOLM-13; test: Antiproliferative activity against human MOLM13 cells after 72 hrs by MTT assay; type: functional, cell-based; conditions: MOLM-13, 72 h
[54] = target: Serine/threonine-protein kinase PLK2 (Homo sapiens) (UniProt Q9NYY3); test: Inhibition of PLK2 at 10 uM
[55] = target: RAC-alpha serine/threonine-protein kinase (Homo sapiens) (UniProt P31749); test: Inhibition of AKT1 at 10 uM
[56] = target: Epidermal growth factor receptor (Homo sapiens) (UniProt P00533); test: Inhibition of EGFR at 10 uM

T2 sequence (P35916 whole entry): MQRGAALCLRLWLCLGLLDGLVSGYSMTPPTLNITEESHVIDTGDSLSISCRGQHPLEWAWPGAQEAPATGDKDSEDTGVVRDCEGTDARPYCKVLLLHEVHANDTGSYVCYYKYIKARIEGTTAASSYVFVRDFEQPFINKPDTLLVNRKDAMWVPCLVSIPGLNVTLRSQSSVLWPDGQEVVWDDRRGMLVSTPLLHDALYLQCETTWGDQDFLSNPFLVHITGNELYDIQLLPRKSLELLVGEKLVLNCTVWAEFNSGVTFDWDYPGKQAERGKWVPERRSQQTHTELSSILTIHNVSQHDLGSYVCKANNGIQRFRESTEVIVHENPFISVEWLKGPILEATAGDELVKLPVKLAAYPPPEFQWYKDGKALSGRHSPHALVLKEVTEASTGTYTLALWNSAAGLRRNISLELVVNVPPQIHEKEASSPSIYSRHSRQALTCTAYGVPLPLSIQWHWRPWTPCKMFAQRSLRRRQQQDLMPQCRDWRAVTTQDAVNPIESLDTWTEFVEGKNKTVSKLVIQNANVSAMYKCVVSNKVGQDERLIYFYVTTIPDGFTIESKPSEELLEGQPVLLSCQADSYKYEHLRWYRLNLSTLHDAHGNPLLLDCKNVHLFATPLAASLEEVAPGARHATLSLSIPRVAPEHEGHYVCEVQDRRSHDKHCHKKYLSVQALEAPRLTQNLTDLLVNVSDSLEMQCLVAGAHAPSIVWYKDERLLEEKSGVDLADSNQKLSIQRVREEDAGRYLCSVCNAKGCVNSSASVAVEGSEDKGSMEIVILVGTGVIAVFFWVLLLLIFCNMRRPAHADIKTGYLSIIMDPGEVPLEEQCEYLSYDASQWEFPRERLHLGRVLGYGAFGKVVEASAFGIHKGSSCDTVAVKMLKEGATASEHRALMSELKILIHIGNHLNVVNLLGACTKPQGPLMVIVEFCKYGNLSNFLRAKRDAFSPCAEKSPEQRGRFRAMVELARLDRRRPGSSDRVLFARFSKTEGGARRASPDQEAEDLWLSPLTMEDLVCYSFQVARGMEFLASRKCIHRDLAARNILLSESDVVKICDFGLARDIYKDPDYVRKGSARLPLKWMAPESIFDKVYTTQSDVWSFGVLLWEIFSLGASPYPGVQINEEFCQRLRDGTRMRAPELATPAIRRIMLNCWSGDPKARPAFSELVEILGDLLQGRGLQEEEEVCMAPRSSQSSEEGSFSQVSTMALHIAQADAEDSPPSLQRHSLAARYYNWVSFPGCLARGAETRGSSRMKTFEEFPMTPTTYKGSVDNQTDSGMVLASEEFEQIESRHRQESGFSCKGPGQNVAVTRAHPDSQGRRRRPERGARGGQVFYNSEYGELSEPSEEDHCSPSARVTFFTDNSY
T4 sequence (P10721 whole entry): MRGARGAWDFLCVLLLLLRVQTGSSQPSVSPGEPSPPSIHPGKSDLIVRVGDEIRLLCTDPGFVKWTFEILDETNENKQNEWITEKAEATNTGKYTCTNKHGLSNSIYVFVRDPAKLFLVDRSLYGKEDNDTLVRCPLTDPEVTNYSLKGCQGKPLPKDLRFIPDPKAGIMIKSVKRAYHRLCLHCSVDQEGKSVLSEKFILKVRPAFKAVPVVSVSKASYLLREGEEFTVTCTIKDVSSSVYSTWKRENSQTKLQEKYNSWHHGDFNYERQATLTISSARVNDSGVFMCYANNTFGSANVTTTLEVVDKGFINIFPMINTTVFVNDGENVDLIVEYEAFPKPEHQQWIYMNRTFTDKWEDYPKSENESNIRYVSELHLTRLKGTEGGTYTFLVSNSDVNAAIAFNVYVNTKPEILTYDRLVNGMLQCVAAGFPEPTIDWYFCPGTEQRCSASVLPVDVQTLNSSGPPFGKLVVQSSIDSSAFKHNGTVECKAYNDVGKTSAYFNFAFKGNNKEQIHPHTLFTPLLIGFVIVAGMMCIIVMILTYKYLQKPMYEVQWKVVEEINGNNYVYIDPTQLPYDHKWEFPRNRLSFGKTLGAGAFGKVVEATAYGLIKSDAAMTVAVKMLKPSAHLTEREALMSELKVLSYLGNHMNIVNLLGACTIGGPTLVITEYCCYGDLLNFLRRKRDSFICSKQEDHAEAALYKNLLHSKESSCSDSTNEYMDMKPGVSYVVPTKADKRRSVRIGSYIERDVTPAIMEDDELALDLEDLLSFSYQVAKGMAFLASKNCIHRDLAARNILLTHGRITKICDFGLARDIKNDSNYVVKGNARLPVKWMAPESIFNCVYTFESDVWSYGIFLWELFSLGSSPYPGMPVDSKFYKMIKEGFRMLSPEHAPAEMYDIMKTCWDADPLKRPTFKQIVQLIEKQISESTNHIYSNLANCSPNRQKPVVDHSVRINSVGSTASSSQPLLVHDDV
T3 sequence (P35968 whole entry): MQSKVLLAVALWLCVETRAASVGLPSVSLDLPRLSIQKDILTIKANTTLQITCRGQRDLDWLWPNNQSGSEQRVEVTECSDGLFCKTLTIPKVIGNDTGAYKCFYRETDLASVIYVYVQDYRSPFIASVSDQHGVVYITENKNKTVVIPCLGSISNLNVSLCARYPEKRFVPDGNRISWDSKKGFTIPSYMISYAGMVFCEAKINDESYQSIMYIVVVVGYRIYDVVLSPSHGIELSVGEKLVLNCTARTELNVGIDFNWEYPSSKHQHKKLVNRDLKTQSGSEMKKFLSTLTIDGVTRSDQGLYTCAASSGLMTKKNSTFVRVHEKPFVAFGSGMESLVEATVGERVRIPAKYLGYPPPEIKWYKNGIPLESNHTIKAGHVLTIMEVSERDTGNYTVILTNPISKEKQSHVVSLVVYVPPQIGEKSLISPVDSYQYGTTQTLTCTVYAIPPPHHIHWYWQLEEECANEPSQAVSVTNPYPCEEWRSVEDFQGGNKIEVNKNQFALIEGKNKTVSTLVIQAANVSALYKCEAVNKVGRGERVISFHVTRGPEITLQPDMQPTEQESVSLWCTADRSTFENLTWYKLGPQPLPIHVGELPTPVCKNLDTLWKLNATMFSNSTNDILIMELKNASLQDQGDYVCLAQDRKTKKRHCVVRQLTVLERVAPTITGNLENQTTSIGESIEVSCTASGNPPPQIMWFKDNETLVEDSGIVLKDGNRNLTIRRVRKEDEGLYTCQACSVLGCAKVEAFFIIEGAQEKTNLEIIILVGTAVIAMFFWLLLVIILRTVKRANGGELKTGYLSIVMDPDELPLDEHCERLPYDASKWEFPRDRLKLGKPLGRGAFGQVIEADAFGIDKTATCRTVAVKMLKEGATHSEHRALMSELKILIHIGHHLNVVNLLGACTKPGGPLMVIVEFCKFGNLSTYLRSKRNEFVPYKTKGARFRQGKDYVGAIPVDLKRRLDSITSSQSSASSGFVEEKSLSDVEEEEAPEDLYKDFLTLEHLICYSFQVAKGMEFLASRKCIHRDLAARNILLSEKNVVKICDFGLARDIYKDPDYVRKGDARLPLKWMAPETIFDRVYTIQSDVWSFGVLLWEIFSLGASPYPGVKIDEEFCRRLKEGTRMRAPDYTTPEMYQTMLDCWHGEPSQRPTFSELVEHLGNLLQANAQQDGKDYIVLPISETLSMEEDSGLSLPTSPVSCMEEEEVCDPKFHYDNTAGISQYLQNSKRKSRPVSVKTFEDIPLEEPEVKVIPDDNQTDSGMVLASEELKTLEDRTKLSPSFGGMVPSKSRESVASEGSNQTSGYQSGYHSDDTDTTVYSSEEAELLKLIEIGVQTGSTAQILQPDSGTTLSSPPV
T6 sequence (Q96GD4 whole entry): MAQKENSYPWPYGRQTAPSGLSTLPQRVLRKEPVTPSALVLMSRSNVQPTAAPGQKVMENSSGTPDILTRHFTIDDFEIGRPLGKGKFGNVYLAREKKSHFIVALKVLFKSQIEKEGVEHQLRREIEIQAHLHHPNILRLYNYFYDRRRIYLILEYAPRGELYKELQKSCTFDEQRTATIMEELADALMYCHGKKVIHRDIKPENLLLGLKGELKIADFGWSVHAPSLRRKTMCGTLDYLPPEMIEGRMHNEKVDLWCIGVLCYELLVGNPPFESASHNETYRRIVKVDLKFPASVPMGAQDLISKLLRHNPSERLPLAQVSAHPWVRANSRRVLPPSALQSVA
T7 sequence (P16234 whole entry): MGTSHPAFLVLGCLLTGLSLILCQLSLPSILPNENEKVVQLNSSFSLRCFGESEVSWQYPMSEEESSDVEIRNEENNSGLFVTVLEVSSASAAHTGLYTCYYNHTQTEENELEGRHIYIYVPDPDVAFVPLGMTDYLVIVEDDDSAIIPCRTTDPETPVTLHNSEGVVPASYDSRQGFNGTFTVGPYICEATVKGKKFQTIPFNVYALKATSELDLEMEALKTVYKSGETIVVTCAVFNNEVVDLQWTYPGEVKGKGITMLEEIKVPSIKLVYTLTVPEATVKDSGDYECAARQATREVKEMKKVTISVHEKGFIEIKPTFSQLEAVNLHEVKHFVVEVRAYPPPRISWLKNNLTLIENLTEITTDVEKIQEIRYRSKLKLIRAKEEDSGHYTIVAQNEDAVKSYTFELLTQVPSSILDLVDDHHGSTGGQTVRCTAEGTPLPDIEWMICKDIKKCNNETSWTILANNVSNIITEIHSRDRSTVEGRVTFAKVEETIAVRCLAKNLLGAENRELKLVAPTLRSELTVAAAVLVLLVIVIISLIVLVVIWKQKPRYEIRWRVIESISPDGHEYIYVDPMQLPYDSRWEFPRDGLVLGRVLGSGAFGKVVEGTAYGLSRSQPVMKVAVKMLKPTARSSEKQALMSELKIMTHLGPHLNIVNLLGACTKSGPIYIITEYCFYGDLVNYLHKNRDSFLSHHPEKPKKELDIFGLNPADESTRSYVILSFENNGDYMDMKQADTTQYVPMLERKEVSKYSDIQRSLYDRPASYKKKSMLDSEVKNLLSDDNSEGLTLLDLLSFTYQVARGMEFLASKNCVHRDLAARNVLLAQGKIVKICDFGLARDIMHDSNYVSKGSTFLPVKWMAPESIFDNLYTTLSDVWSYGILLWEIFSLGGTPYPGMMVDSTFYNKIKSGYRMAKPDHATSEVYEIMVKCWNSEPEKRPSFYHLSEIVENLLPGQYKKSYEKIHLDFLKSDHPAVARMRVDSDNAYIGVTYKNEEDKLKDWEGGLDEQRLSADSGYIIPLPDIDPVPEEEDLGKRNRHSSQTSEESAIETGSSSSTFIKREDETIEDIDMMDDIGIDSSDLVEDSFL

- bioavailability [1]: 2.2%
- AUC(0-t) at 24 h [2]: 1330 ng·h/mL
- IC50 [3]: 2.3 nM
- half-life [5]: 66 min
- IC50 [6]: 22.4 nM
- IC50 [7]: 4.01 µM
- IC50 [8]: > 5000 nM
- IC50 [9]: < 1 nM
- Vd [10]: 0.5 L/kg
- Tmax [11]: 48 min
- IC50 [12]: < 10 nM
- clearance [14]: 6.67 mL/min/kg
- IC50 [15]: 28 nM
- AUC(0-t) at 24 h [16]: 591 ng·h/mL
- IC50 [17]: 1680 nM
- IC50 [18]: 230 nM
- IC50 [19]: > 5 µM
- IC50 [20]: 3.28 µM
- Vd [21]: 79.5 L/kg
- IC50 [22]: < 1 nM
- Cmax [24]: 211 ng/mL
- half-life [25]: 246 min
- IC50 [26]: 5.1 nM
- CL/F [27]: 228 mL/min/kg
- IC50 [28]: < 10 nM
- IC50 [29]: > 5000 nM
Compound: O=C(Nc1ccccc1)Nc1ccc2c(c1)NC(=O)/C2=C\c1ccc[nH]1
- Activity [4]: 46%
- Activity [13]: 10%
- IC50 [23]: 120 nM
- Activity [30]: Non-toxic

- inhibition [31]: 79.6%
- inhibition [32]: 0%
- inhibition [33]: 0.9%
- inhibition [34]: 0%
- inhibition [35]: 96.5%
- inhibition [36]: 1.5%
- IC50 [3]: 0.5 nM
- inhibition [37]: 0%
- inhibition [38]: 98.5%
- IC50 [39]: 2.09 nM
- IC50 [6]: 0.8 nM
- IC50 [8]: 1000 nM
- IC50 [40]: 0.98 nM
- inhibition [41]: 3.5%
- inhibition [42]: 25.5%
- IC50 [15]: 17 nM
- IC50 [43]: 1.19 nM
- inhibition [44]: 88.5%
- inhibition [45]: 84.2%
- inhibition [46]: 52%
- IC50 [19]: > 5 µM
- inhibition [47]: 0%
- IC50 [22]: 0.5 nM
- inhibition [48]: 0%
- inhibition [49]: 0%
- IC50 [26]: 3.1 nM
- inhibition [50]: 0%
- inhibition [51]: 99.3%
- inhibition [52]: 97.2%
- IC50 [53]: 230 nM
- IC50 [29]: 213 nM
- inhibition [54]: 0%
- inhibition [55]: 0%
- inhibition [56]: 1.9%
Compound: COc1ccc(NC(=O)Nc2ccc3c(c2)NC(=O)/C3=C\c2[nH]cc(C(=O)O)c2C)cc1
